Results from publication PMC8147254, “Efflux at the Blood-Brain Barrier Reduces the Cerebral Exposure to Ochratoxin A, Ochratoxin α, Citrinin and Dihydrocitrinone” (Toxins, 2021).
Read-outs that look alike come from different tables or passages of the source.

Experiments:
PBCEC [1] = assay type: cell-based, porcine; conditions: pig
Method: In order to study the barrier integrity PBCEC were incubated with 1 µM OTA, OTα, CIT and DHCIT in the apical compartment (blood side) of Transwell® filter inserts for 48 h. The TEER values as well as the electrical capacitance (cCL) were monitored by cellular impedance spectroscopy (Figure 4A,B). As a negative control the permeability of […] was measured after 48 h. Sucrose is not transported by any cellular transport protein and represents a marker for an intact BBB. […]
6.1. Cellular impedance spectroscopy […]
6.2. […] permeability
As additional method to control the barrier tightness the permeability of radiolabeled […]
across the Transwell® inserts was measured. Since 14C sucrose is not transported or taken up by endothelial cells, the permeability of 14C sucrose is an appropriate parameter for barrier integrity.
After 48 h exposure to the mycotoxins 1 μ Ci (37 kBq) […] (Amersham, Buckinghamshire, UK) was applied to the apical compartment. Samples from the basolateral compartment were collected after 10, 20, 30, 40, 60 and 80 min, diluted in scintillation fluid and analyzed with a scintillation counter as previously described.

in vitro = conditions: pig
PBCEC [2] = assay type: cell-based, porcine; conditions: 1 µM apical, 48 h, referred to t = 0 h, n = 9 (negative control 88 ± 4%)
Method: (§1) In order to study the barrier integrity PBCEC were incubated with 1 µM OTA, OTα, CIT and DHCIT in the apical compartment (blood side) of Transwell® filter inserts for 48 h. The TEER values as well as the electrical capacitance (cCL) were monitored by cellular impedance spectroscopy (Figure 4A,B). As a negative control the permeability of […] was measured after 48 h. Sucrose is not transported by any cellular transport protein and represents a marker for an intact BBB.
For barrier integrity, TEER values were monitored using a cellZscope® cellular impedance spectrometer (nanoAnalytics, Münster, Germany). […]. The detailed protocols can be found in the Supplementary Materials. […]
6.1. Cellular impedance spectroscopy
To monitor the barrier integrity during all transfer studies, the transendothelial electrical resistance (TEER) was measured with a cellZscope® cellular impedance spectrometer (nanoAnalytics, Münster, Germany) using a module suitable for 24 Transwell® filter inserts. After the mycotoxins were added to the cell culture medium, TEER was analyzed until the end of the experiment (48 h). The waiting time after each run was set to 10 min, resulting in 60 scans per 48 h.
The results were normalized to the TEER values of the first impedance spectrum of each well. Data processing was performed using the cellZscope 1.3.4 software (nanoAnalytics, Münster, Germany).

PBCEC monolayer = assay type: in vitro ADME, porcine; conditions: 200 nM in both compartments; for effect of probenecid on the enrichment in the apical compartment: 100 µM probenecid; for concentration in the apical compartment after 48 h / concentration in the basolateral compartment after 48 h: n = 3; for mycotoxin amounts extracted from the cells and filter membranes, of the initially applied amount: data not shown
Method: To analyse any active transport the mycotoxins were applied in the apical and basolateral compartments in equimolar concentrations of 200 nM. In a second set of experiments, 100 µM probenecid were added to both compartments 1 h before mycotoxin incubation in order to elucidate the effects of the OAT transport proteins. […] The mycotoxin concentrations were analysed as described above by HPLC-MS/MS.
For active transport studies, the cells were treated as described for transfer studies, with the only difference being that the compounds were applied on the apical and basolateral side in equimolar 200 nM concentrations (see Supplementary Materials). To investigate whether probenecid has an effect on the active transfer of the mycotoxins via OAT, 100 µM probenecid was applied to the apical and basolateral compartment 1 h before mycotoxin application and maintained until the end of the experiment.
Afterwards, the column was re-equilibrated for 4 min. An injection volume of 5 µL was used.
5. Active transport studies
To study the active transfer properties, the cells were treated in the same manner as for the normal transfer studies, but the mycotoxins were incubated on the apical and basolateral side in equimolar 200 nM concentrations as previously described. To investigate whether probenecid has an effect on the active transfer of the mycotoxins via OAT, 100 μM probenecid was applied to the apical and basolateral compartment 1 h before mycotoxin application and maintained until the end […]
after applying the mycotoxins using HPLC‐MS/MS. […]

PBCEC [3] = assay: Electrical capacitance cCL of the cell monolayer by impedance spectroscopy; assay type: cell-based, porcine; conditions: 1 µM apical, referred to t = 0 h, n = 9 (negative control 99 ± 2%)
Method: as §1
Besides the TEER values, the electrical capacitance cCL of the cell monolayer was also monitored for 48 h (Figure 4B). As cellular bilayer membranes behave like an electrical capacitor, they influence the cellular impedance. Changes in cCL are markers for the integrity of the cells. Weak cytotoxic effects lead to a reduction of cCL, whereas strong cytotoxic effects result in an exponential increase in cCL to more than 150% due to the usually observed detachment of the cells from the surface.
For barrier integrity, TEER values were monitored using a cellZscope® cellular impedance spectrometer (nanoAnalytics, Münster, Germany). […]. The detailed protocols can be found in the Supplementary Materials.
After 48 h the medium was […]
The Transwell® filters were briefly […]
equipped with a 24 12‐well Transwell® filter setup. Each well was previously filled with 1650 μL serum‐free medium. Transendothelial electrical resistances (TEER) were analyzed using the cellZscope® device. Only Transwell® filters with TEER values of more than 600 Ω∙cm² and electrical […]
76 μ L of the medium in the apical […]
concentration of the mycotoxins was 1 μM at the beginning of the mycotoxin incubation. The final solvent concentration was 0.1% ACN. […]
and 48 h after toxin application. […]

[4] = cellular viability (dehydrogenase activity) compared to the negative control, 1 µM, 48 h, CCK-8, n = 18
[5] = cellular viability (dehydrogenase activity) compared to the negative control, 10 µM, 48 h, CCK-8, n = 18
[6] = 100 µM probenecid from 1 h before

| Compound | permeability pc (14C sucrose) after mycotoxin incubation (PBCEC [1]) | viability at 1 µM (in vitro; [4]) | viability at 10 µM (in vitro; [5]) | relative TEER value after 48 h (PBCEC [2]) | effect of probenecid on the enrichment in the apical compartment (PBCEC monolayer) | concentration in the apical compartment after 48 h (PBCEC monolayer; [6]) | concentration in the basolateral compartment after 48 h (PBCEC monolayer; [6]) | concentration in the apical compartment after 48 h (PBCEC monolayer; without probenecid) | concentration in the basolateral compartment after 48 h (PBCEC monolayer; without probenecid) | mycotoxin amounts extracted from the cells and filter membranes, of the initially applied amount (PBCEC monolayer) | electrical capacitance cCL after 48 h (PBCEC [3]) | viability at 1 µM (in vitro) | viability at 10 µM (in vitro) |
| --- | --- | --- | --- | --- | --- | --- | --- | --- | --- | --- | --- | --- | --- |
| C[C@@H]1Cc2c(Cl)cc(C(=O)N[C@@H](Cc3ccccc3)C(=O)O)c(O)c2C(=O)O1 [OTA, Ochratoxin A] | 0.81 ± 0.17 10^−6 cm/s | 92 ± 23% | 3 ± 4% | 62 ± 10% | minor almost negligible effect | 292 ± 28 nM | 224 ± 6 nM | 275 ± 32 nM | 206 ± 4 nM | below 1% | 96 ± 4% | – | – |
| Cc1c(O)c(C(=O)O)c(O)c2c1[C@H](C)[C@@H](C)OC2=O [DHCIT, dihydrocitrinone] | 0.38 ± 0.17 10^−6 cm/s | – | – | 79 ± 9% | – | 250 ± 15 nM | 178 ± 15 nM | 278 ± 7 nM | 186 ± 6 nM | below 1% | 99 ± 4% | 96 ± 11% | 87 ± 9% |
| CC1=C2C(=CO[C@H](C)[C@H]2C)C(O)=C(C(=O)O)C1=O [CIT, Citrinin] | 0.50 ± 0.33 10^−6 cm/s | – | – | 81 ± 10% | some effect of probenecid cannot be dismissed | 205 ± 21 nM | 180 ± 12 nM | 266 ± 18 nM | 182 ± 1 nM | below 1% | 97 ± 4% | 106 ± 13% | 134 ± 13% |
| C[C@@H]1Cc2c(Cl)cc(C(=O)O)c(O)c2C(=O)O1 [OTα, ochratoxin α] | 0.56 ± 0.24 10^−6 cm/s | 119 ± 18% | 100 ± 14% | 92 ± 16% | weak | 236 ± 16 nM | 187 ± 1 nM | 268 ± 10 nM | 194 ± 5 nM | below 1% | 98 ± 2% | – | – |
